The source of these data is patent US20040115162A1, “Dermatological preparations” (KAO CORPORATION, priority 1999, published 2004).

Data set [1] deals with dorsal skin of rats with essential fatty acid deficiency. Description: Test 2: percutaneous absorption of 14C-salicylic acid through excised dorsal skin of treated rats. The format is in vivo, Wistar male rats. The conditions noted are these: 10% diamide derivative and 90% squalane; once a day for 2 weeks; radioactivity of 14C-salicylic acid penetrated in 2 hours through excised skin; mean. The protocol: (§1) Dermatologic preparations (invention products) of the present invention composed of 10% of each of the diamide derivatives prepared in Preparation Examples 1 to 18 and 90% of squalane were prepared and their transepidermal water loss and percutaneous absorption were evaluated by the below-described test method. For comparison, a dermatologic preparation (Comparative Product 2) composed of squalane alone was also evaluated by the test.
(§2) Wistar male rats were fed with a feed free from essential fatty acids and the resulting rats with essential fatty acid deficiency were employed in this test. The dorsal part of the rat showing essential fatty acid deficiency was carefully shaven and each dermatologic preparation to be evaluated was applied thereto once a day for 2 weeks. A group consisting of 5 rats was provided for the test of each dermatologic preparation. After 2 weeks, the following items were examined.
After the dorsal skin of the rat was washed with warm water of 37° C., it was cut and fixed in a percutaneous absorption chamber with the epidermal side thereof directed upward. A lower receiver of the chamber was filled with a phosphate buffer solution while a container on the epidermal side thereof was charged with 1 ml of a phosphate buffer solution containing 37 KBq of ^14C-salicylic acid. Two hours after they were allowed to stand, 1 mL of the phosphate buffer solution was taken out of the lower receiver and the radioactivity of the ^14C-salicylic acid which had penetrated into it was measured. Each value is expressed in mean value.

Data set [2] shares this test system. Description: Test 2: transepidermal water loss in rats with essential fatty acid deficiency. The data set is classed as in vivo, Wistar male rats. On the set-up: unit not given here. As to conditions: 10% diamide derivative and 90% squalane; applied to shaven dorsal part once a day for 2 weeks; evaporimeter; mean of 5 rats. The protocol: as §1, §2
The dorsal part of the test rat was washed with warm water and the animal was the allowed to stand in a room (at 23° C. under a humidity of 45%) for 1 hour. The transepidermal water loss was then measured with an evaporimeter. Each measured value is expressed in mean value.

The test system of data set [3] is horny layer. The data set is described as follows: Test 1: skin conductance (water content of the horny layer) after 2-week application on cheeks. The arrangement: unit not given here. As to conditions: preparation of 33% diamide derivative and 67% vaseline; applied on cheeks 2 weeks; ten female subjects with chapping; skin conductance meter, 20° C., humidity 45%. The format is in vivo, human. The protocol: (§3) Dermatologic preparations (invention products) composed of 33% of each of the diamide derivatives prepared in Preparation Examples 1 to 18 and 67% of vaseline were prepared. Their effects on skin conductance and chapping were evaluated in the below-described manner. For comparison, a dermatologic preparation (Comparative Product 1) composed of vaseline alone was evaluated in the same manner.
(§4) Ten female subjects aged 20 to 50 years, who suffered chapping in cheeks in winter, were employed. Different dermatologic preparations were applied on the right and left cheeks of the subjects for 2 weeks, respectively. On the next day after completion of the application for 2 weeks, the following items were examined.
The face of each subject was washed with warm water of 37° C. After they were allowed to stand in a room at 20° C. under a humidity of 45% for 20 minutes, the water content of the horny layer was measured using a skin conductance meter (product of IBS Co., Ltd.).

Data set [4] concerns chapping in cheeks. The data set is described as follows: Test 1: skin chapping score by naked-eye observation after 2-week application on cheeks. The format is in vivo, human. The conditions noted are these: 33% diamide derivative and 67% vaseline, 2 weeks, mean score, 0 no chapping to 4 serious chapping. The protocol: as §3, §4
Each score is expressed in the mean value.
0: No chapping is observed.
1: Slight chapping is observed.
3: Somewhat serious chapping is observed.
4: Serious chapping is observed.

A short description of data set [5]: Miscibility and mixing stability in cosmetic formulations. The data set is classed as physicochemical.
Where [6] appears, read: in hair liquid composition of Table 10, 1%.

In the case of `COCCCNC(=O)CCCCCCCCCCC(=O)NCCCOC` [Compound (M)], the Percutaneous absorption in data set [1] is on record as 2038. In data set [2], this compound displayed a Transepidermal water loss of 25.
Consider `C/C(=C\CC/C=C(\C)CCCCCCC(=O)NCCOCCO)CCCCCCC(=O)NCCOCCO` [Compound (B)], for which the Percutaneous absorption in data set [1] is recorded as 558. The compound further displayed a Transepidermal water loss in data set [2] of 12. In data set [3], the Skin conductance is 25. This compound also came in with a Skin chapping score in data set [4] of 0.9.
Regarding `O=C(CCCCCCCCCCC(=O)NCCOCCO)NCCOCCO` [Compound (K)], the Percutaneous absorption in data set [1] is 1694. In data set [2], this compound returned a Transepidermal water loss of 22.
Take `CCCCCCCCCCCCOCCCNC(=O)CCCCCCC(C)CCCCC(C)CCCCCCC(=O)NCCCOCCCCCCCCCCCC` (stereo not drawn) [Compound (G)]: in data set [1], the Percutaneous absorption is recorded as 1096. Further, the Transepidermal water loss in data set [2] was determined as 16. For the same compound, the Skin conductance in data set [3] was 17. This compound had a Skin chapping score in data set [4] of 1.1.
For `O=C(CCCCCCCCC(=O)NCCOCCO)NCCOCCO` [Compound (D)], the Percutaneous absorption in data set [1] came out at 997. In addition, in data set [2], the Transepidermal water loss is 15. Moreover, the Skin conductance in data set [3] amounted to 30. In addition, the “miscibility and mixing stability” value is on record as “excellent” in data set [5] (in O/W cream of Table 8, 3.5%) and “excellent” in data set [5] (setting [6]). In data set [4], this compound registered a Skin chapping score of 0.5.
On to `O=C(CCCCCCCCCCCCCC(=O)NCCOCCO)NCCOCCO` [Compound (I)], for which the Percutaneous absorption in data set [1] stood at 1197. The Transepidermal water loss in data set [2] was 18.
For `O=C(CCCCCCCCCCCCCCCCCCC(=O)NCCOCCO)NCCOCCO` [Compound (C)], in data set [1], the Percutaneous absorption stood at 1685. Besides, the Transepidermal water loss in data set [2] is 21. The Skin conductance in data set [3] worked out at 21. The same compound registered a Skin chapping score in data set [4] of 1.0.
`COCCOCCNC(=O)CCCCCCC(C)CCCCC(C)CCCCCCC(=O)NCCOCCOC` (stereo not drawn) [Compound (H)]: in data set [1], the Percutaneous absorption is recorded as 2036. This compound displayed a Transepidermal water loss in data set [2] of 23. This compound also displayed a Skin conductance in data set [3] of 19. In data set [4], this compound came in with a Skin chapping score of 1.3.
For `COCCCNC(=O)CCCCCCCCC(=O)NCCCOC` [Compound (N)], in that order: 1560, 23, 18 and 1.5.
For `O=C(CCC(=O)NCCOCCO)NCCOCCO` [Compound (E)], in that order: 1772, 25, 18 and 1.0.
On to `COCCCNC(=O)CCCCCCC(C)CCCCC(C)CCCCCCC(=O)NCCCOC` (stereo not drawn) [Compound (F)], for which the Percutaneous absorption in data set [1] is 1487. In data set [2], the Transepidermal water loss is 20. Also, the Skin conductance in data set [3] was found to be 20. Besides, the “miscibility and mixing stability” value in data set [5] (in O/W cream of Table 8, 3.5%) was “excellent”; in data set [5] (setting [6]), “excellent”; in data set [5] (in shampoo of Table 9, 2%) it was “excellent”; in data set [5] (in skin lotion of Table 7, 1%) it was “excellent”. This compound also registered a Skin chapping score in data set [4] of 1.2.
With `CCCCCCCCCCCCOCCCNC(=O)CCCCCCCCC(=O)NCCCOCCCCCCCCCCCC` [Compound (O)], the Percutaneous absorption in data set [1] came out at 2476. Besides, the Transepidermal water loss in data set [2] is listed as 27.
On to `O=C(CCCCCCCCCCCC(=O)NCCOCCO)NCCOCCO` [Compound (J)], for which the Percutaneous absorption in data set [1] turned out to be 1490. The Transepidermal water loss in data set [2] turned out to be 21. Also, in data set [3], the Skin conductance worked out at 23. In data set [4], this compound gave a Skin chapping score of 0.8.
With `CC(CCCCCCC(=O)NCCOCCO)CCCCC(C)CCCCCCC(=O)NCCOCCO` (stereo not drawn) [Compound (A)], in data set [1], the Percutaneous absorption amounted to 572. In data set [2], this compound gave a Transepidermal water loss of 12. Moreover, the Skin conductance in data set [3] is recorded as 28. The “miscibility and mixing stability” value in data set [5] (in shampoo of Table 9, 2%) was “excellent”; in data set [5] (in skin lotion of Table 7, 1%), “excellent”. In data set [4], this compound registered a Skin chapping score of 0.6.
As to `COCCCNC(=O)CCCCCCCCCCCCCCCCCCC(=O)NCCCOC` [Compound (L)], the Percutaneous absorption in data set [1] is listed as 705. The compound also had a Transepidermal water loss in data set [2] of 15. This compound came in with a Skin conductance in data set [3] of 19. For the same compound, in data set [4], the Skin chapping score is given as 1.3.
